Test results taken from patent US9314485B2, “Use of PI3K M-TOR and AKT inhibitors to induce FOXP3 expression and generate regulatory T cells” (Medical Research Council, priority 2006, dated 2016).
pIC50: −log10 of the molar value.

How the values were obtained:
[1] = tested on: naive CD62LhiCD4+CD25− LN T cells; assay: Foxp3 induction in newly activated naive CD4 T cells (intracellular staining); assay type: cell-based, mouse; details: for number of cell divisions (CFSE): 24-48 hours after addition at 18 hours; for % Foxp3+ cells, activation with anti-TCR only: no costimulation; for % Foxp3+ cells, activation with anti-TCR only / % Foxp3+ cells, activation with anti-TCR + anti-CD28: average of two experiments; for % Foxp3+ cells, activation with anti-TCR + anti-CD28: with costimulation
Procedure: Mouse strains, cell sorting and culture Animal work was carried out according the Animals (Scientific Procedures) Act, UK. Lymph node (LN) cells were stained, analysed and sorted by flow cytometry as described (Cobb et al 2005 J. Exp. Med. 201: 1367-1373). Intracellular staining for Foxp3 protein was done as advised by the manufacturers (eBiosciences.com). The phosphorylation syatus of S6 ribosomal protein was determined using anti pS6 Ser235/236 (Cellsignaling cat.no. 2211, http://www.cellsignal.com) using the eBioscience Foxp3 staining kit and anti rabbit IgG-FITC or IgG-Cy5 (Jackson Immunoresearch). For induction of Foxp3 expression, sorted LN CD4+ CD25− CD62Lhi T cells were cultured at 1-3×10^6/ml with plate bound anti-TCRβ. […] After 18 hours the cells were either left in place for continued TCR stimulation or moved to uncoated wells with the indicated additives. To assess regulatory function, CD4 T cells cultured as indicated were titrated into round bottom wells containing either 1×10^5 CFSE labeled total LN cells or 5×10^4 CFSE labeled CD4^+ CD25^− T cells and 1×10^5 mitomycin-C treated (25 μg/ml, 20 min, 37° C.) T cell depleted splenocytes with the indicated concentrations of anti CD3 (2C11, Pharmingen). CD4 T cell CFSE profiles were recorded between 48 and 72 hours later.
Mice, Cell Sorting and Culture. Animal work was carried out according to the Animals (Scientific Procedures) Act, UK. Lymph node (LN) cells or thymocytes from wild type were stained, analysed and sorted by flow cytometry as described (Thompson et al., 2007 Immunity VoI 26 pp 335-344) from wild type (C57BL/6, BALB/c or C57BL/6×129) mice or from Rag1 deficient H2^b AND TCR transgenic mice. Antigen presenting cells were derived from bone marrow in the presence of GM-CSF and incubated with antigenic peptide. Intracellular staining for Foxp3 protein was done as advised by the manufacturers (eBiosciences.com). The phosphorylation status of S6 ribosomal protein was determined using anti pS6 Ser235/236 (Cell Signaling cat.no. 2211, http://www.cellsignal.com) using the eBioscience Foxp3 staining kit and anti rabbit IgG-FITC or IgG-Cy5 (Jackson ImmunoResearch). […] After 18 hours the cells were either left in place for continued TCR stimulation or moved to uncoated wells with the indicated additives. To assess regulatory function, CD4 T cells cultured as indicated were titrated into round bottom wells containing either 1×10^5 CFSE labeled total LN cells or 5×10^4 CFSE labeled CD4^+CD25^− T cells and 1×10^5 mitomycin-C treated (25 μg/ml, 20 min, 37° C.) T cell depleted splenocytes with the indicated concentrations of anti CD3 (2C11, Pharmingen). CD4 T cell CFSE profiles were recorded between 48 and 72 hours later.

PI3KC2α = PI3KC2α (Homo sapiens, UniProt O00443); details: unit inferred; read-out: Specificity for PI3KC2α (IC50 determined in vitro); cited from earlier work
PI3KC2β = PI3KC2β (Homo sapiens, UniProt O00750); details: unit inferred; read-out: Specificity for PI3KC2β (IC50 determined in vitro); cited from earlier work
PI3KC2γ = PI3KC2γ (Homo sapiens, UniProt O75747); details: unit inferred; read-out: Specificity for PI3KC2γ (IC50 determined in vitro); cited from earlier work
Chain of PI3KC2γ (O75747 whole entry, species assumed): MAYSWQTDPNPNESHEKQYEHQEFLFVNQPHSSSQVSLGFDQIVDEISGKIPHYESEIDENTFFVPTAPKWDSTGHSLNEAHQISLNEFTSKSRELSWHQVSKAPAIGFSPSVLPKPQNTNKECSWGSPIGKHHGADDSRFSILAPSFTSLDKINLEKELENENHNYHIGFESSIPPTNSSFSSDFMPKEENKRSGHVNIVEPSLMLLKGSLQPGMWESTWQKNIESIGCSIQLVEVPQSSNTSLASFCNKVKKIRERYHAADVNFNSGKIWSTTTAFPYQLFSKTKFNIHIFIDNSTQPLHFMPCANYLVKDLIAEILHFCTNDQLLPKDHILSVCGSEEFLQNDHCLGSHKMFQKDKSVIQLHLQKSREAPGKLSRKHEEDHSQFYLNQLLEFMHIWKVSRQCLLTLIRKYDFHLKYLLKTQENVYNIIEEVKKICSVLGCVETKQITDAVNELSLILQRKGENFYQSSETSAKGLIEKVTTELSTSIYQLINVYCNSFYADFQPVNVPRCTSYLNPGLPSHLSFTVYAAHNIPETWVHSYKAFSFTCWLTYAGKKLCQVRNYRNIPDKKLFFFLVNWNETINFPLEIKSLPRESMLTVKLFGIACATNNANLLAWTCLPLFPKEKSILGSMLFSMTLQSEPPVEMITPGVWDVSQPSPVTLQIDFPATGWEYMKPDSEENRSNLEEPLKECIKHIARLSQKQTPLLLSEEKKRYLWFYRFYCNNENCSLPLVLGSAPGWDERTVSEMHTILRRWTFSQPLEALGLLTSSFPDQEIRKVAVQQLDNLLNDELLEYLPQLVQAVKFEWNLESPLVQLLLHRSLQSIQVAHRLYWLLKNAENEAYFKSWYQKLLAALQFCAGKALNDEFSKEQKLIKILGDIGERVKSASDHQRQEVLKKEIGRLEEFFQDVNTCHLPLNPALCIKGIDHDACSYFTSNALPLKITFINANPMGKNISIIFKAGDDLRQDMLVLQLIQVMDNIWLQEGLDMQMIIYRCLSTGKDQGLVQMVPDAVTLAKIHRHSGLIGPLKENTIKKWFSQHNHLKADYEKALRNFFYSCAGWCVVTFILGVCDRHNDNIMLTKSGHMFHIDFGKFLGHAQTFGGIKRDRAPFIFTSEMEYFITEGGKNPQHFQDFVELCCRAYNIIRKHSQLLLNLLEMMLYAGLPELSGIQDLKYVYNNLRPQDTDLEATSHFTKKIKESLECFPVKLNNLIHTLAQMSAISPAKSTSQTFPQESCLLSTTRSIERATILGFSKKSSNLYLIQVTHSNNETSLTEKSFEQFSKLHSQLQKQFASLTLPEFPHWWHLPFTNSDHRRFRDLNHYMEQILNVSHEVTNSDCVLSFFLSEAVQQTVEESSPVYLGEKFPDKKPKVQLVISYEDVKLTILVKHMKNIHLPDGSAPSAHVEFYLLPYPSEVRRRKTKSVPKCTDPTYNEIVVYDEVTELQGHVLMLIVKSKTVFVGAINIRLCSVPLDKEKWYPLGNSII

hsVPS34 = hsVPS34 (Homo sapiens, UniProt Q8NEB9); details: unit inferred; read-out: Specificity for hsVPS34 (IC50 determined in vitro); cited from earlier work
PI4KIIα = PI4KIIα (Homo sapiens, UniProt Q9BTU6); details: unit inferred; read-out: Specificity for PI4KIIα (IC50 determined in vitro); cited from earlier work
PI4KIIIα = PI4KIIIα (Homo sapiens, UniProt P42356); details: unit inferred; read-out: Specificity for PI4KIIIα (IC50 determined in vitro); cited from earlier work
PI4KIIIβ = PI4KIIIβ (Homo sapiens, UniProt Q9UBF8); details: unit inferred; read-out: Specificity for PI4KIIIβ (IC50 determined in vitro); cited from earlier work
ATR = ATR (Homo sapiens, UniProt Q13535); details: unit inferred; read-out: Specificity for ATR (IC50 determined in vitro); cited from earlier work
Chain of ATR (Q13535 whole entry): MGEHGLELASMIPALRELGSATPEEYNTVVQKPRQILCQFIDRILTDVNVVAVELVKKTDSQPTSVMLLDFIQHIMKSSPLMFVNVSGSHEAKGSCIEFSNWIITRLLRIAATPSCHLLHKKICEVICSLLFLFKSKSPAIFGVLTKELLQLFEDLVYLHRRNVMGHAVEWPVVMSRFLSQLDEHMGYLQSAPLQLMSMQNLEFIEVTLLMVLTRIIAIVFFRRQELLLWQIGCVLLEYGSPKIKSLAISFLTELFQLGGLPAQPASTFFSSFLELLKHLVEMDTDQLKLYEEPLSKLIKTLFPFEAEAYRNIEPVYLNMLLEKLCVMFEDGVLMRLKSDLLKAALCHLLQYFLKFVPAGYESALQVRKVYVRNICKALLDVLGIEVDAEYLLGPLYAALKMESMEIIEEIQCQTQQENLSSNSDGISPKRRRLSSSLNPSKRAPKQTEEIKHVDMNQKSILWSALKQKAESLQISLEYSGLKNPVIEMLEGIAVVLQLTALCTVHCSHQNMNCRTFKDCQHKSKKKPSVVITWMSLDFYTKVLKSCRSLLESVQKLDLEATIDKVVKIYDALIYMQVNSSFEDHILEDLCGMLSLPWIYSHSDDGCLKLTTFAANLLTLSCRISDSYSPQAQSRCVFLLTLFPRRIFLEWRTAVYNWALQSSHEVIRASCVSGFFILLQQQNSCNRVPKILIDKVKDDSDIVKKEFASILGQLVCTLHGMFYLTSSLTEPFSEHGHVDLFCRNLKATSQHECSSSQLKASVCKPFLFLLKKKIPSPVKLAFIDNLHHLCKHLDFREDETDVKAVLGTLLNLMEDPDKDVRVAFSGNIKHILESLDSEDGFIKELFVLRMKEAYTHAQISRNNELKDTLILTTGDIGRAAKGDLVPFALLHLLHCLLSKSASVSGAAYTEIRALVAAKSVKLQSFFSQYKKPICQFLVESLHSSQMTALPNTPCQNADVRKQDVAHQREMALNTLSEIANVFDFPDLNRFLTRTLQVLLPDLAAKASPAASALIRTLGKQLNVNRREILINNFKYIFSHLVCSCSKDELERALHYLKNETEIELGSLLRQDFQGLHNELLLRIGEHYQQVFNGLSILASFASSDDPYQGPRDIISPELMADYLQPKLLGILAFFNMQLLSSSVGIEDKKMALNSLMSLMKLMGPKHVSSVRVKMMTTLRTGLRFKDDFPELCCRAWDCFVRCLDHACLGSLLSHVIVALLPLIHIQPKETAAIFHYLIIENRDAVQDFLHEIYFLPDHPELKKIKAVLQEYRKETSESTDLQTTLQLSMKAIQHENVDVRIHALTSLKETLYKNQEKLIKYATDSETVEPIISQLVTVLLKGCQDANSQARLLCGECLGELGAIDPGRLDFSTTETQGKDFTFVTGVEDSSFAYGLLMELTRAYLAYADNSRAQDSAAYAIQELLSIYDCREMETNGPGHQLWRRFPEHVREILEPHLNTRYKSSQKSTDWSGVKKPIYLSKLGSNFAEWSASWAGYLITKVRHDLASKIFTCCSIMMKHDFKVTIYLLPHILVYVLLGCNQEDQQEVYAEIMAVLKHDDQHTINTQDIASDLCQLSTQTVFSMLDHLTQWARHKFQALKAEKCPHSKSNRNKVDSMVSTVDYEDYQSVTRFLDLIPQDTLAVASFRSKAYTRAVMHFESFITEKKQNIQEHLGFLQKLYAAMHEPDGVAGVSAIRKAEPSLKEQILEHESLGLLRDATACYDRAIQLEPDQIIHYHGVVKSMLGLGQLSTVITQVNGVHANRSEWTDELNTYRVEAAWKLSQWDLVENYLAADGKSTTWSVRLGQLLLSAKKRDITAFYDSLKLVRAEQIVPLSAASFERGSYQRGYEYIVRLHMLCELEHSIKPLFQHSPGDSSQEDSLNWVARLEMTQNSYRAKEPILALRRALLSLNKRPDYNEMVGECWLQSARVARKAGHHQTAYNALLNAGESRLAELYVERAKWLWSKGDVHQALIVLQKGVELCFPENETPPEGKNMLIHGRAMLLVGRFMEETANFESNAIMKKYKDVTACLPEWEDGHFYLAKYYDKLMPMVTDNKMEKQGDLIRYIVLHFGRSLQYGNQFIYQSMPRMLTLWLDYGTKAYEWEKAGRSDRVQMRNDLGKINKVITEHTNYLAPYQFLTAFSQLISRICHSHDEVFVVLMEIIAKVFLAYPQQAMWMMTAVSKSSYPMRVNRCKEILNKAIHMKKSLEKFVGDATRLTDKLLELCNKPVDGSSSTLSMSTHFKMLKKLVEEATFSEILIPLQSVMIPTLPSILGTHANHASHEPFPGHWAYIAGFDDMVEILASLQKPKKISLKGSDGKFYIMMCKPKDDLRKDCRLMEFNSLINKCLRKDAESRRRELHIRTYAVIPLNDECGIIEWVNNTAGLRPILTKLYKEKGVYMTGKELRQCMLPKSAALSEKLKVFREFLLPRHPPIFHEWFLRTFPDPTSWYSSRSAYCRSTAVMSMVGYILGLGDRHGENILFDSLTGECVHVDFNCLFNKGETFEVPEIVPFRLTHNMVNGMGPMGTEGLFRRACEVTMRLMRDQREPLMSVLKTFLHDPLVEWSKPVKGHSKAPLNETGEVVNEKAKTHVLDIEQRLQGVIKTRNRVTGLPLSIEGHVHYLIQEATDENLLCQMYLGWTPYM
Chain of ATR (Q8WXE1 whole entry partner): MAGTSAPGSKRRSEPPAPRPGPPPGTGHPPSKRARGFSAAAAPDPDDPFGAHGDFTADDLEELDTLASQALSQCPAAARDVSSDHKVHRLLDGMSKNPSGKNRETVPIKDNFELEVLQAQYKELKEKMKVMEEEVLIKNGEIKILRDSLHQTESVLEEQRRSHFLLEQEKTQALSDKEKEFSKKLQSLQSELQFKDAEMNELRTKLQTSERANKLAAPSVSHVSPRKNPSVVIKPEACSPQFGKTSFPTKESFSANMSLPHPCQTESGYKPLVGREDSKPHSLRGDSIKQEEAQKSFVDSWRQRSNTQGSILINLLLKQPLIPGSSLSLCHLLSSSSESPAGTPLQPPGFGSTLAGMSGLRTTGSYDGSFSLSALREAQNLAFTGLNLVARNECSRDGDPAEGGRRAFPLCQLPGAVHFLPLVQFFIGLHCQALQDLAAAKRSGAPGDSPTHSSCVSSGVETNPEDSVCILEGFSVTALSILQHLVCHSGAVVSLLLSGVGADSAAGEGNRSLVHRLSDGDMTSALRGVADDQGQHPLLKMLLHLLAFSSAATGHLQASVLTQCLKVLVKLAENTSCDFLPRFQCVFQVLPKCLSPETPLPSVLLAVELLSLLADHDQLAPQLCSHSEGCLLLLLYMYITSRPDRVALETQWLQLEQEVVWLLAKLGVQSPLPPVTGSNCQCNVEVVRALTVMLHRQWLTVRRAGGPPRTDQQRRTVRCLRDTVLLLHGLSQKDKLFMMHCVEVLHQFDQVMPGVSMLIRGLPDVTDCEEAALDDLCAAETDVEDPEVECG

ATM = ATM (Homo sapiens, UniProt Q13315); details: unit inferred; read-out: Specificity for ATM (IC50 determined in vitro); cited from earlier work
DNA-PK = DNA-PK (Homo sapiens, UniProt P78527); details: unit inferred; read-out: Specificity for DNA-PK (IC50 determined in vitro); cited from earlier work
mTORC1 = mTORC1 (Homo sapiens, UniProt P42345); details: unit inferred; read-out: Specificity for mTORC1 (IC50 determined in vitro); cited from earlier work
mTORC2 = mTORC2 (Homo sapiens, UniProt P42345); details: unit inferred; read-out: Specificity for mTORC2 (IC50 determined in vitro); cited from earlier work
PI4P5KIα [2] = target: PI4P5KIα (Homo sapiens, UniProt Q99755); details: first PI4P5KIα line; unit inferred; read-out: Specificity for PI4P5KIα (IC50 determined in vitro); cited from earlier work
PI4P5KIα [3] = details: second PI4P5KIα line; unit inferred; read-out: Specificity for PI4P5KIα (IC50 determined in vitro); cited from earlier work
PI5P4KIIβ = target: T1, PI5P4KIIβ (Homo sapiens, UniProt P78356); details: unit inferred; read-out: Specificity for PI5P4KIIβ (IC50 determined in vitro); cited from earlier work
T1 sequence (P78356 1-416): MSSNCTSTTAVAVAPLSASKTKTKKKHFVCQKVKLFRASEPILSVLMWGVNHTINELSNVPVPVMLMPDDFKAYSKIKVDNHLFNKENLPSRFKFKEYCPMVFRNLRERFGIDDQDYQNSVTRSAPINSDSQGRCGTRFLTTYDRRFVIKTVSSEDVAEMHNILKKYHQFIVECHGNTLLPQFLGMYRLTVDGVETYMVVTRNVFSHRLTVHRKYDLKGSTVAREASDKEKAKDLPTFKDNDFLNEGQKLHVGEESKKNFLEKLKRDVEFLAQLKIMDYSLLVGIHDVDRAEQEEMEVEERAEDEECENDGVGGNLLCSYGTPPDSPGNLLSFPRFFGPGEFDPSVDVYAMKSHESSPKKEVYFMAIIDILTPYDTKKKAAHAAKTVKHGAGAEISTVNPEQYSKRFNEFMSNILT

S6 ribosomal protein = S6 ribosomal protein phosphorylation (pS6) by intracellular staining/immunoblot; assay type: cell-based, mouse; details: 18 h activated cells; rapamycin 25 nM, Ly294002 10 g/ml as printed; within one hour
Procedure: Mouse strains, cell sorting and culture Animal work was carried out according the Animals (Scientific Procedures) Act, UK. Lymph node (LN) cells were stained, analysed and sorted by flow cytometry as described (Cobb et al 2005 J. Exp. Med. 201: 1367-1373). Intracellular staining for Foxp3 protein was done as advised by the manufacturers (eBiosciences.com). The phosphorylation syatus of S6 ribosomal protein was determined using anti pS6 Ser235/236 (Cellsignaling cat.no. 2211, http://www.cellsignal.com) using the eBioscience Foxp3 staining kit and anti rabbit IgG-FITC or IgG-Cy5 (Jackson Immunoresearch). […] CD4 T cell CFSE profiles were recorded between 48 and 72 hours later.
To monitor the activity of the PI3K/mTOR axis in response to TCR signaling, TCR signal withdrawal and treatment with rapamycin and Ly294002, we analysed the level of phosphorylated S6 ribosomal protein (pS6), the target of p70 S6 kinase, which is directly regulated by mTOR. […]
Mice, Cell Sorting and Culture. […] Lymph node (LN) cells or thymocytes from wild type were stained, analysed and sorted by flow cytometry as described (Thompson et al., 2007 Immunity VoI 26 pp 335-344) from wild type (C57BL/6, BALB/c or C57BL/6×129) mice or from Rag1 deficient H2^b AND TCR transgenic mice. […] CD4 T cell CFSE profiles were recorded between 48 and 72 hours later.

For `Cc1ccccc1-n1c(Cn2cnc3c(N)ncnc32)nc2cccc(C)c2c1=O` [IC87114], the “Foxp3 induction at 1 μM” value ([1]; 1 μM) is listed as 15%, the “increase in Foxp3 expressing cells over and above TCR deprivation alone” value ([1]; IC-87114 down to 0.01 μM) is listed as 10-15% and the pIC50 (PI3KC2α) is listed as under 4.00. For the same molecule, the pIC50 (PI3KC2β) was under 4.00, the pIC50 (PI3KC2γ) was under 4.00 and the pIC50 (hsVPS34) was under 4.00. For the same molecule, the pIC50 (PI4KIIα) was under 4.00, the pIC50 (PI4KIIIα) was under 4.00 and the pIC50 (PI4KIIIβ) was under 4.00. The pIC50 (ATR) was under 4.00, the pIC50 (ATM) was under 4.00 and the pIC50 (DNA-PK) was under 4.00. The pIC50 (mTORC1) was under 4.00, the pIC50 (mTORC2) was under 4.00 and the pIC50 (PI4P5KIα [2]) was under 4.00. The pIC50 (PI4P5KIα [3]) was under 4.00 and the pIC50 (PI5P4KIIβ) was under 4.00.

In the case of `O=c1cc(N2CCOCC2)oc2c(-c3ccccc3)cccc12` [Ly294002, 2-(4-Morpholinyl)-8-phenyl-4H-1-benzopyran-4-one], the “number of cell divisions (CFSE)” value [1] was “slight reduction”, the “number of cell divisions (CFSE)” value ([1]; listed as LY294002) was “slightly reduced” and the “percentage of cells expressing Foxp3” value ([1]; added 18 hours after activation with TCR signal deprivation, read within 24-48 hours) was 26.9±11.4%. For the same molecule, the “% Foxp3+ cells, activation with anti-TCR only” value [1] was 4%, the “% Foxp3+ cells, activation with anti-TCR only” value ([1]; listed as LY294002) was 4% Foxp3^+ and the “Foxp3 expression in control cultures, TCR signal deprived cultures subtracted” value ([1]; serum free AIM-V medium, without anti TGFβ and SB431542, 24-48 hours / 2 days) was 21.5±4.0%. For the same molecule, the “% Foxp3+ cells, activation with anti-TCR + anti-CD28” value [1] was 44%, the “% Foxp3+ cells, activation with anti-TCR + anti-CD28” value ([1]; listed as LY294002) was 44% Foxp3^+ and the “S6 phosphorylation (pS6)” value (S6 ribosomal protein) was “completely removed”.
